Tests used:
[1] = cited from earlier work
[2] = patients with normal serum albumin concentrations; cited from earlier work
Description: Protein binding plays an important role when the RRT clearance is only estimated based on drug characteristics, since it is assumed that only unbound drug can be dialyzed or filtrated. The integrated model allows direct assessment of the RRT clearance without assumptions on the efficacy in dialysis and filtration processes based on the unbound fraction. Moreover, elimination processes, that are independent of dialysis and filtration, e.g. adsorption to the dialysis membrane, can be quantified. RRT clearance of highly protein bound drugs, e.g. teicoplanin presenting a protein binding of >90% in ...

[3] = In vitro RRT study of teicoplanin in bovine blood, evaluated with the IDP model; assay type: in vitro ADME
Method: For all population pharmacokinetic modelling work in this study, NONMEM® (ICON development service, Gaithersburg, MD, version 7.4) was used. The inter-individual variability of the pharmacokinetic parameters was assumed to be log-normally distributed. For the intra-individual, residual variability an additive, proportional or combined error model was used. In the clinical data examples, models were evaluated by graphical and numerical criteria (goodness of fit plots, visual predictive checks and drop in objective function value (dOFV)). The LLP-SIR (log-likelihood-profiling based sampling-importance-resampling) method was employed for the assessment of parameter uncertainty, since a small number of subjects or cases was investigated.
An in vitro study investigating RRT of teicoplanin in bovine blood was evaluated using the IDP model. 51 pre-filter plasma samples and 45 post-filter plasma samples were included. 45 effluent samples were collected which were all below the lower limit of quantification (5 mg/L), which was considered in the analyses by comparison to simulations after estimation. A blood concentration of 25 mg/L using a volume of 2.2–2.5 L was studied. The blood flow rate was set to 250 mL/min and the dialysate flow rate to 500 mL/min without filtration. In five experiments, a polysulphone membrane (n = 3: FX80, Fresenius Medical Company, Austria, n = 2: F60 S, Fresenius Medical Company, Austria), and in one experiment a triacetate membrane (Ni 21 e, Surflux-21E, Nipro Corporation, Japan) was used. The IDP model was used to describe the RRT clearance and adsorption to the dialysis membranes was evaluated.

Molecule	degradation half-life in stabilizing conditions [1] [h]	protein binding [2] [%]	CLRRT ([3]; bovine blood, 25 mg/L, blood flow 250 mL/min, dialysate flow 500 mL/min, no filtration, IDP model) [mL/min]	FractionAdsorbed (fraction of the RRT clearance mediated via adsorption) ([3]; bovine blood, IDP model)	RRT clearance ([3]; bovine blood, IDP model, changing over time) [L/h]	Ads. capacity polysulfone FX80/F60S ([3]; polysulphone membranes, five experiments) [mg]	Adsorption capacity triacetate ([3]; triacetate membrane Ni 21 e, n = 1 experiment) [mg]
C[C@@H](O)[C@H]1C(=O)N2C(C(=O)O)=C(S[C@@H]3CN[C@H](CNS(N)(=O)=O)C3)[C@H](C)[C@H]12 [Doripenem, doripenem]	> 100	–	–	–	–	–	–
teicoplanin	–	> 90	76.5	0.891	4.59	31.2	8.6

— PMC7225193, “An Integrated Dialysis Pharmacometric (IDP) Model to Evaluate the Pharmacokinetics in Patients Undergoing Renal Replacement Therapy” (Pharmaceutical Research, 2020)
